PubChem BioAssay AID179 (DTP/NCI, 2004)
The source made the active and inactive calls.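 How the source made its calls: active means compounds giving half or more protection of infected cells from virus-caused growth loss, again on retest; inactive means the rest.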

Test system: CEM cells HIV-1 protection, formazan growth assay
Test: NCI AIDS Antiviral Assay
Conditions: for IC50: measured here: growth of uninfected CEM cells
In short: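 CEM (human) cells, HIV-1 infected vs uninfected, 5-point dosing, formazan growth read-out. Retest threshold 50% protection.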

COc1ccc(/C=C/C(=O)c2ccc(Br)cc2)cc1
EC50: > 200 µM | IC50: 33.1 µM

COc1cc(CNc2nc3ccccc3nc2C(=O)O)cc(OC)c1OC
EC50: > 200 µM | IC50: 74.1 µM

COC1CC(OC2C(C)OC(OC3C(C)OC(OC4C(C)OC(O[C@H]5CC[C@@]6(C)C(=CC[C@]7(O)[C@@H]6C[C@@H](O)[C@@]6(C)[C@]7(O)CC[C@@]6(O)C(C)=O)C5)CC4OC)CC3OC)CC2OC)OC(C)C1O (stereo not given in full)
EC50: > 200 µM | IC50: > 200 µM

COc1ccc(/C=C/c2ccnc3ccccc23)cc1
EC50: 0.0631 µM | IC50: 14.1 µM

OCC(O)C(O)C(O)c1nn(-c2ccc(F)cc2)c2nc3cc(Cl)c(Cl)cc3nc12 (stereo not given)
outcome: inactive

Cc1cc(CO)c(O)c(CNCc2cc(C)cc(CO)c2O)c1
EC50: > 200 µM | IC50: 8.71 µM

CCOC(=O)C(=CNC(=S)Nc1ccc(OCC)cc1)C(=O)OCC
EC50: > 200 µM | IC50: 112 µM

CC(C)c1cccc(C(C)C)c1NC(=S)Nc1ccccc1
outcome: inactive

CC(NC1CC1)c1ccccc1 (stereo not given)
outcome: inactive

C[C@]12CC[C@H](O)CC1=CC[C@@H]1C2CC[C@]2(C)NC(=O)C(C#N)CC12 (stereo not given in full)
outcome: inactive

O=C(Nc1ccccn1)/C(=C\C(=O)c1ccc(Cl)cc1)Nc1ccccc1
EC50: > 200 µM | IC50: 174 µM

O=C(O)C(O)(O)C(O)(O)C(=O)O
EC50: > 200 µM | IC50: > 200 µM

CC(C)(C)[Si](C)(C)OCC1OC(n2ccc(=O)[nH]c2=O)C(O[Si](C)(C)C(C)(C)C)/C1=N/O (stereo not given)
EC50: > 200 µM | IC50: 4.07 µM

O=Nc1c(O)[nH]c(=S)[nH]c1=O
EC50: > 148 µM | IC50: 115 µM

c1ccc2cc3c(cc2c1)Cn1c-3nc2ccccc21
EC50: > 200 µM | IC50: > 200 µM

CC(C)(C)OC(=O)NC(Cc1ccc(OCc2ccccc2)cn1)C(N)=O (stereo not given)
EC50: > 200 µM | IC50: > 100 µM

O=[N+]([O-])c1ccccc1S(=O)c1ccccc1[N+](=O)[O-]
EC50: > 204 µM | IC50: 3.47 µM

COc1cc(/C=C(\C)c2ccc3c(c2)OCO3)cc(OC)c1OC
EC50: > 41.7 µM | IC50: > 41.7 µM

c1ccc2c(c1)ncn2CCn1ccnc1
EC50: > 200 µM | IC50: > 200 µM

COc1ccc(/C=C/c2ccnc3ccccc23)cc1OC
EC50: 0.0631 µM | IC50: 50.1 µM

O=c1c(-c2nn[nH]n2)cnc2sc3cc(Cl)ccc3n12
EC50: > 200 µM | IC50: 89.1 µM

COc1ccc(-c2cc(C(=O)Nc3cccc(C(F)(F)F)c3)[nH]c(=S)n2)cc1
EC50: > 162 µM | IC50: > 162 µM

COP(=O)(OC)OC1C(=O)NC(=O)NC1=O
EC50: > 200 µM | IC50: > 200 µM

CSc1nc(NC2OCC(O)C(O)C2O)c(N)c(=O)n1C (stereo not given)
outcome: inactive

COCc1cn(C2C=CC(CO)O2)c(=O)[nH]c1=O (stereo not given)
EC50: 17.4 µM | IC50: 123 µM

CC(=O)Nc1ccc2[nH]c(C(=O)N3CC(CCl)c4c3cc(N)c3ccccc43)cc2c1 (stereo not given)
EC50: > 0.2 µM | IC50: 0.00933 µM

COC(=O)/C=C(\C(=O)OC)c1c(C)c(C)c2c(C)cc(C)cc(C)c1-2
EC50: > 200 µM | IC50: 16.6 µM

Cc1ccc(S(=O)(=O)N/N=C2/C3CC4CCC2C4C3)cc1 (stereo not given)
EC50: > 200 µM | IC50: > 200 µM

COCCCNC(=O)C1=C(C)NC(C)=C(C(=O)NCCCOC)C1
EC50: > 200 µM | IC50: 53.7 µM

Clc1cccc2[nH]ncc12
EC50: > 200 µM | IC50: > 100 µM

CCOC(=O)c1ccc(CS(=O)(=O)c2ccc(Cl)cc2)c([N+](=O)[O-])c1
EC50: > 49 µM | IC50: > 49 µM

C/C=C/CCC1CCCCN(C(=O)OC(C)(C)C)C1OCC (stereo not given)
EC50: > 60.3 µM | IC50: > 60.3 µM

CCC(C)C(N)C(=O)NC(CC(N)=O)C(=O)NC(CC(C)C)C(=O)NC(CCCCN)C(=O)NC(C)C(=O)NC(CC(C)C)C(=O)NC(C)C(=O)NC(C)C(=O)NC(CC(C)C)C(=O)NC(C)C(=O)NC(CCCCN)C(=O)NC(CCCCN)C(=O)NC(C(=O)NC(CC(C)C)C(N)=O)C(C)CC (stereo not given)
EC50: 40.7 µM | IC50: 43.7 µM

CN(c1ccccc1Cl)S(=O)(=O)c1ccccc1
EC50: > 200 µM | IC50: 70.8 µM

O=[N+]([O-])c1ccccc1S(=O)(=O)N1CCCc2cc(Cl)ccc21
EC50: > 200 µM | IC50: 16.6 µM
